The values below come from US6569888B1, “Anti-inflammatory indole derivatives” (AstraZeneca AB, priority 1999, dated 2003).

Test [1] concerns the target T1, MCP-1 receptor B (CCR2B) (Homo sapiens, UniProt P41597).
T1 construct: expressed in transfected cells; host or cells: CHO-K1 (clone 7, CHO-CCR2B), membrane fragments
T1 sequence (P41597 1-360 isoform P41597-2): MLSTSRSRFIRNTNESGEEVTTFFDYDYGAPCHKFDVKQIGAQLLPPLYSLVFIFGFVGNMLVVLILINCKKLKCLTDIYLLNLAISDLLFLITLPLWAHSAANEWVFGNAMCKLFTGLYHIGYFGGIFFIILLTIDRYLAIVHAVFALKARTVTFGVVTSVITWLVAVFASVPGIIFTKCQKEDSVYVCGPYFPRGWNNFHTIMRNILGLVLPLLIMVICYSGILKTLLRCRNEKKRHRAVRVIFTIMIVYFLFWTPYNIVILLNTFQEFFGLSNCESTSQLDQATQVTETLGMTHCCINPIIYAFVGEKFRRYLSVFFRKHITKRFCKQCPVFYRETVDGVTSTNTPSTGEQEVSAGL
As to the kind of experiment: hMCP-1 receptor binding assay (125I-MCP-1, CHO-CCR2B cell membranes). From the text: The MCP-1 receptor B (CCR2B) cDNA was cloned by PCR from THP-1 cell RNA using suitable oligonucleotide primers based on the published MCP-1 receptor sequences (Charo et al., 1994, Proc. Natl. Acad. Sci. USA, 91, 2752). The resulting PCR products were cloned into vector PCR-II™ (In Vitrogen, San Diego, Calif.). Error free CCR2B cDNA was subcloned as a Hind III-Not I fragment into the eukaryotic expression vector pCDNA3 (In Vitrogen) to generate pCDNA3/CC-CKR2A and pCDNA3/CCR2B respectively.
Linearised pCDNA3/CCR2B DNA was transfected into CHO-K1 cells by calcium phosphate precipitation (Wigler el al., 1979, Cell, 16, 777). Transfected cells were selected by the addition of Geneticin Sulphate (G418, Gibco BRL) at 1 mg/ml, 24 hours after the cells had been transfected. Preparation of RNA and Northern blotting were carried out as described previously (Needham et al., 1995, Prot. Express. Purific., 6, 134). CHO-K1 clone 7 (CHO-CCR2B) was identified as the highest MCP-1 receptor B expresser. […]
^125I MCP-1 was prepared using Bolton and Hunter conjugation (Bolton et al. 1973, Biochem. J., 133, 529; Amersham International plc]. Equilibrium binding assays were carried out using, the method of Ernst et al., 1994, J. Immunol., 152, 3541. Briefly, varying amounts of ^125I-labeled MCP-1 were added to 7 μg of purified CHO-CCR2B cell membranes in 100 μl of Binding Buffer. After 1 hour incubation at room temperature the binding reaction mixtures were filtered and washed 5 times through a plate washer (Brandel MLR-96T Cell Harvester) using ice cold Binding Buffer. Filter mats (Brandel GF/B) were pre-soaked for 60 minutes in 0.3% polyethylenimine prior to use. Following filtration individual filters were separated into 3.5 ml tubes (Sarstedt No. 55.484) and bound ^125I-labeled MCP-1 was determined (LKB 1277 Gammamaster). […] Non-specific binding was determined by the inclusion of a 200-fold molar excess of unlabelled MCP-1 in the reaction. […]

The subject of test [2] is THP-1 cells. As to the kind of experiment: hMCP-1 mediated chemotaxis. Type of test: cell-based, human. As to the method: (§1) In vitro chemotaxis assays were performed using the human monocytic cell line THP-1. Cell migration through polycarbonate membranes was measured by enumerating those passing through either directly by Coulter counting or indirectly by use of a colourimetric viability assay measuring the cleavage of a tetrazolium salt by the mitochondrial respiratory chain (Scudiero D. A. et al. 1988, Cancer Res., 48, 4827-4833).
(§2) Chemoattractants were introduced into a 96-well microtitre plate which forms the lower well of a chemotaxis chamber fitted with a PVP-free 5 μm poresize polycarbonate adhesive framed filter membrane (NeuroProbe MB series, Cabin John, Md. 20818, USA) according to the manufacturer's instructions. […] The plate was incubated at 37° C. for 3 h and the absorbance of the soluble formazan product was read on a microtitre plate reader at 450 nm. The data was input into a spreadsheet, corrected for any random migration in the absence of chemoattractant and the average absorbance values, standard error of the mean, and significance tests were calculated. hMCP-1 induced concentration dependent cell migration with a characteristic biphasic response, maximal […]. […]

Test [3] deals with THP-1 cells. As to the kind of experiment: RANTES mediated chemotaxis. Particulars: Homo sapiens, RANTES 2 nM, Calcein AM tagged cells. Type of test: cell-based. The procedure: as §1, §2
Test [4] deals with THP-1 cells. As to the kind of experiment: MCP-1 mediated calcium flux in THP-1 cells. Particulars: stimulation of THP-1 cells with hMCP-1, FURA-2; read-out: EC50 of rise in [Ca2+]i. Type of test: cell-based, human. As to the method: The human monocytic cell line THP-1 was grown in a synthetic cell culture medium RPMI 1640 supplemented with 10% foetal calf serum, 6 mM glutamine and Penicillin-Streptomycin (at 50 μg streptomycin/ml, Gibco BRL). THP-1 cells were washed in HBSS (lacking Ca^2+ and Mg^2+)+1 mg/ml BSA and resuspended in the same buffer at a density of 3×10^6 cells/ml. The cells were then loaded with […] FURA-2/AM for 30 min at 37° C., washed twice in HBSS, and resuspended at 1×10^6 cells/ml. THP-1 cell suspension (0.9 ml) was added to a 5 ml disposable cuvette containing a magnetic stirrer bar and 2.1 ml of prewarmed (37° C.) HBSS containing 1 mg/ml BSA. 1 mM MgCl2 and 2 mM CaCl2. The cuvette was placed in a fluorescence spectrophotometer (Perkin Elmer, Norwalk, Conn.) and preincubated for 4 min at 37° C. with stirring. Fluorescence was recorded over 70 sec and cells were stimulated by addition of hMCP-1 to the cuvette after 10 sec. [Ca^2+]i was measured by excitation at 340 nm and 380 nm alternately and subsequent measurement of the intensity of the fluorescence emission at 510 nm.
where the Kd for FURA-2 Ca^2+ complex at 37° C. was taken to be 224 nm. […]
In general terms: Calcium assays in cells follow changes in intracellular calcium, usually with a dye or a luminescent sensor.

The term IC50 denotes the concentration that gives 50% inhibition. What is called EC50 is the midpoint of the concentration-response curve. The term Kd denotes the free concentration of one partner at which half of the binding sites on the other are occupied at equilibrium, for simple one-to-one binding. A high value points to weaker binding.

Read-outs that look alike come from different tables or passages of the source.

Take `O=C(O)COc1cccc2c1cc(C(=O)O)n2Cc1ccc(F)c(F)c1` [Compound 5, N-(3,4-Difluorobenzyl)-4-(carboxymethoxy)indole-2-carboxylic Acid]: the IC50 in test [1] (competition with 100 pM labelled MCP-1, CHO-CCR2B membranes, 0.01-50 μM, duplicate eight point curves, read-out: IC50 in the hMCP-1 receptor binding assay) was 2.3 µM.

In test [2] (Homo sapiens, 1 nM MCP-1), `COc1ccc2c(cc(C(=O)O)n2Cc2ccc(Cl)c(Cl)c2)c1OCC(=O)O` [Compound 9, N-(3,4-Dichlorobenzyl)-5-methoxy-4-(carboxymethoxy)indole-2-carboxylic Acid] displayed an IC50 of 12.8 µM.

With `O=C(O)c1cc2c(OCCCO)cccc2n1Cc1ccc(Cl)c(Cl)c1` [Compound 15, N-(3,4-Dichlorobenzyl)-4-(3-hydroxypropoxy)indole-2-carboxylic Acid], the IC50 in test [3] was 3.64 µM.

Regarding “MCP-1: Human Monocyte Chemoattractant Protein-1, chemokine ligand of the CCR2 receptor”, the EC50 in test [4] was roughly 0.002 µM. The “concentration of maximal cell migration (biphasic response)” value in test [2] (hMCP-1 as chemoattractant) was 0.5-1.0 nm. For the same molecule, in test [1] (cold competition, 100 pM 125I-labeled MCP-1, CHO-CCR2B membrane fragments, read-out: IC50 of MCP-1 binding to CCR2B receptor), the IC50 turned out to be 0.00011 µM. For the same molecule, binding in test [1] (equilibrium binding, CHO-CCR2B membrane fragments) was put at a Kd of 0.00012 µM.
